Measured values published in US11634425B2, “Pharmaceutical compounds” (priority 2019, dated 2023).
Like-named read-outs stand apart in the source and are kept apart here.

Tests used:
in vitro [1] = format: in vitro ADME; details: hepatocytes, 3 μM compound, read-out: Liver Hepatocyte Stability t1/2
Procedure: Compounds were subjected to the following assays to investigate liver microsomal stability and hepatocyte stability.
Hepatocyte Incubation: Experimental Procedure
Cryopreserved pooled hepatocytes were purchased from a reputable commercial supplier and stored in liquid nitrogen prior to use. Williams E media supplemented with 2 mM L-glutamine and 25 mM HEPES and test compound (final substrate concentration 3 μM; final DMSO concentration 0.25%) are pre-incubated at 37° C. prior to the addition of a suspension of cryopreserved hepatocytes (final cell density 0.5×10^6 viable cells/mL in Williams E media supplemented with 2 mM L-glutamine and 25 mM HEPES) to initiate the reaction. The final incubation volume is 500 μL. Two control compounds were included with each species, alongside appropriate vehicle control. The reactions are stopped by transferring 50 μL of incubate to 100 μL acetonitrile containing internal standard at the appropriate time points. Samples were removed at 6 time points (0, 5, 15, 30, 45 and 60 min) over the course of a 60 min experiment. The termination plates are centrifuged at 2500 rpm at 4° C. for 30 min to precipitate the protein. Following protein precipitation, the sample supernatants were combined in cassettes of up to 4 compounds and analysed using generic LC-MS/MS conditions. From a plot of ln peak area ratio (compound peak area/internal standard peak area) against time, the gradient of the line is determined. Subsequently, half-life (t1/2) and intrinsic clearance (CLint) were calculated.

RSV A2 = experiment: RSV plaque reduction assay; format: cell-based, respiratory syncytial virus (RSV); details: human respiratory syncytial virus, HepG2, Hep-G2 cells, mean of at least two experiments
Procedure, shortened: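 EC50 is the 50% reduction in immunostained plaque count versus virus-control wells, interpolated from variable-slope 4-parameter fits and averaged over at least two runs. Hep-G2 cells were infected with 100 PFU/well RSV A2 premixed with compound, with the inoculum removed after 2 h. Incubation continued at 37 °C for 2 days under a CMC overlay with compound.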

Cell cytotoxicity (CC50) = format: cell-based; details: human; mean of at least two experiments
Procedure, shortened: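 Values are means of ≥2 independent runs, rounded to whole units, from 4-parameter variable-slope curve fits. Toxicity measured in Hep-G2 cells run alongside RSV plaque-reduction assays.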

in vitro [2] = format: in vitro ADME; details: microsomes, pH 7.4, 1 μM compound, 0.5 mg/mL protein, read-out: Liver Microsomal Stability t1/2
Procedure, shortened: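 Pooled liver microsomes (0.5 mg/mL protein) in 0.1 M phosphate pH 7.4 with 1 μM compound and 1 mM NADPH at 37° C., sampled at 0–45 min; minus-NADPH control at 45 min. Acetonitrile quench, LC-MS/MS; t1/2 and CLint from ln peak-area ratio vs time slope.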

Structure (SMILES) | half-life at 3 μM (in vitro [1]; dog) | half-life at 3 μM (in vitro [1]; human) | half-life at 3 μM (in vitro [1]; rat) | EC50 (RSV A2) | CC50 (Cell cytotoxicity (CC50)) | half-life at 1 μM (in vitro [2]; dog) | half-life at 1 μM (in vitro [2]; human) | half-life at 1 μM (in vitro [2]; rat)
O=C(N[C@H]1N=C(c2ccccc2)c2cccc(F)c2NC1=O)c1c(-c2ccccc2F)nn2cccnc12 [Example 3, N-[(3S)-9-fluoro-2-oxo-5-phenyl-1,3-dihydro-1,4-benzodiazepin-3-yl]-2-(2-fluorophenyl)pyrazolo[1,5-a]pyrimidine-3-carboxamide] | > 186 min | 257 min | 81.7 min | 90 nM | > 25 µM | > 140 min | 330 min | > 140 min
O=C(N[C@H]1N=C(c2ccccc2)c2cccc(F)c2NC1=O)c1c(-c2ccccc2F)nc2cccnn12 [Example 18, N-[(3S)-9-fluoro-2-oxo-5-phenyl-1,3-dihydro-1,4-benzodiazepin-3-yl]-2-(2-fluorophenyl)imidazo[1,2-b]pyridazine-3-carboxamide] | 127 min | 694 min | 66.4 min | 28 nM | > 25 µM | 414 min | 741 min | 50.3 min
COc1ccc2nc(-c3ccncc3F)c(C(=O)N[C@H]3N=C(c4ccccc4)c4cccc(F)c4NC3=O)n2n1 [Example 119, N-[(3S)-9-fluoro-2-oxo-5-phenyl-1,3-dihydro-1,4-benzodiazepin-3-yl]-2-(3-fluoropyridin-4-yl)-6-methoxyimidazo[1,2-b]pyridazine-3-carboxamide] | 295 min | > 186 min | 118 min | 28 nM | > 25 µM | 444 min | 161 min | 51.8 min
Cc1ccn2nc(-c3ccccc3F)c(C(=O)N[C@H]3N=C(c4ccccc4)c4cccc(F)c4NC3=O)c2n1 [Example 23, N-[(3S)-9-Fluoro-2-oxo-5-phenyl-1,3-dihydro-1,4-benzodiazepin-3-yl]-2-(2-fluorophenyl)-5-methylpyrazolo[1,5-a]pyrimidine-3-carboxamide] | 214 min | 519 min | 70.9 min | 21 nM | > 25 µM | 902 min | 399 min | 33.3 min
Cc1nn2cc(-c3ccoc3)cnc2c1C(=O)N[C@H]1N=C(c2ccccc2)c2cccc(F)c2NC1=O [Example 24, N-[(3S)-9-Fluoro-2-oxo-5-phenyl-1,3-dihydro-1,4-benzodiazepin-3-yl]-6-(furan-3-yl)-2-methylpyrazolo[1,5-a]pyrimidine-3-carboxamide] |  |  |  | 104 nM | > 25 µM | 119 min | > 140 min | 25.6 min
O=C(N[C@H]1N=C(c2ccccc2)c2ccccc2NC1=O)c1c(-c2ccccc2F)nn2ccc(N3CCOCC3)nc12 [Example 39, 2-(2-Fluorophenyl)-5-(morpholin-4-yl)-N-[(3S)-2-oxo-5-phenyl-2,3-dihydro-1H-1,4-benzodiazepin-3-yl]pyrazolo[1,5-a]pyrimidine-3-carboxamide] |  |  |  | 62 nM | > 25 µM | 15.3 min | 79.8 min | 32.3 min
CN1CCN(c2ccc3nc(-c4ccccc4F)c(C(=O)N[C@H]4N=C(c5ccccc5)c5cccc(F)c5NC4=O)n3n2)CC1 [Example 95, N-[(3S)-9-fluoro-2-oxo-5-phenyl-1,3-dihydro-1,4-benzodiazepin-3-yl]-2-(2-fluorophenyl)-6-(4-methylpiperazin-1-yl)imidazo[1,2-b]pyridazine-3-carboxamide] |  |  |  | 93 nM | > 21.1 µM | 66.8 min | 56.9 min | 35.7 min
O=C(N[C@H]1N=C(c2ccccc2)c2cccc(F)c2NC1=O)c1c(-c2cnc3[nH]ccc3c2)nn2cccnc12 [Example 75, N-[(3S)-9-Fluoro-2-oxo-5-phenyl-1,3-dihydro-1,4-benzodiazepin-3-yl]-2-(1H-pyrrolo[2,3-b]pyridin-5-yl)pyrazolo[1,5-a]pyrimidine-3-carboxamide] |  |  |  | 44 nM | > 25 µM | 86.9 min | 678 min | 50 min
Cc1cnc2c(C(=O)N[C@H]3N=C(c4ccccc4)c4cccc(F)c4NC3=O)c(-c3ccccc3F)nn2c1 [Example 34, N-[(3S)-9-Fluoro-2-oxo-5-phenyl-1,3-dihydro-1,4-benzodiazepin-3-yl]-2-(2-fluorophenyl)-6-methylpyrazolo[1,5-a]pyrimidine-3-carboxamide] |  |  |  | 23 nM | > 25 µM | 86.4 min | > 140 min | 65 min
COc1ccc2nc(-c3ccccc3F)c(C(=O)N[C@H]3N=C(c4ccccc4)c4cccc(F)c4NC3=O)n2n1 [Example 115, N-[(3S)-9-fluoro-2-oxo-5-phenyl-1,3-dihydro-1,4-benzodiazepin-3-yl]-2-(2-fluorophenyl)-6-methoxyimidazo[1,2-b]pyridazine-3-carboxamide] |  |  |  | 34 nM | > 25 µM | 467 min | 150 min | 145 min
O=C(N[C@H]1N=C(c2ccccc2)c2cccc(F)c2NC1=O)c1c(-c2ccccc2F)nc2ccc(Cl)nn12 [Example 116, 6-Chloro-N-[(3S)-9-fluoro-2-oxo-5-phenyl-1,3-dihydro-1,4-benzodiazepin-3-yl]-2-(2-fluorophenyl)imidazo[1,2-b]pyridazine-3-carboxamide] |  |  |  | 33 nM | > 25 µM | > 140 min | > 140 min | 57.4 min
CC(C)c1ccc(-c2nn3cccnc3c2C(=O)N[C@H]2N=C(c3ccccc3)c3cccc(F)c3NC2=O)cn1 [Example 59, 2-(6-Propan-2-ylpyridin-3-yl)-N-[(3S)-9-fluoro-2-oxo-5-phenyl-1,3-dihydro-1,4-benzodiazepin-3-yl]pyrazolo[1,5-a]pyrimidine-3-carboxamide] |  |  |  | 60 nM | > 25 µM | 90.6 min | 137 min | 60.3 min
O=C(N[C@H]1N=C(c2ccccc2)c2ccccc2NC1=O)c1c(-c2ccccc2)nn2cccnc12 [Example 12, N-[(3S)-2-oxo-5-phenyl-1,3-dihydro-1,4-benzodiazepin-3-yl]-2-phenylpyrazolo[1,5-a]pyrimidine-3-carboxamide] |  |  |  | 153 nM | > 25 µM | 232 min | 264 min | > 140 min
CC(C)Nc1ccc(-c2nn3cccnc3c2C(=O)N[C@H]2N=C(c3ccccc3)c3ccccc3NC2=O)c(F)n1 [Example 69, 2-[2-Fluoro-6-(propan-2-ylamino)pyridin-3-yl]-N-[(3S)-2-oxo-5-phenyl-1,3-dihydro-1,4-benzodiazepin-3-yl]pyrazolo[1,5-a]pyrimidine-3-carboxamide] |  |  |  | 19 nM | > 25 µM | 26.8 min | 193 min | 146 min
